This note sets out measurements from patent US12246008B2, “4-amino or 4-alkoxy-substituted aryl sulfonamide compounds with selective activity in voltage-gated sodium channels” (Merck Sharp & Dohme LLC, priority 2018, dated 2025).

Molecules are shown by their SMILES. Read-outs that look alike come from different tables or passages of the source.

What all share (assay): Qube automated patch-clamp assay, inhibition of sodium current
Holding throughout (format): cell-based
In general terms: In patch-clamp work, channel activity is measured electrically.

The target of experiment [1] is T1, human Nav1.6 channels stably expressed in HEK 293 cells (Homo sapiens, UniProt Q9UQD0).
T1 construct: expressed in transfected cells; host or cells: HEK 293
T1 sequence (Q9UQD0 whole entry): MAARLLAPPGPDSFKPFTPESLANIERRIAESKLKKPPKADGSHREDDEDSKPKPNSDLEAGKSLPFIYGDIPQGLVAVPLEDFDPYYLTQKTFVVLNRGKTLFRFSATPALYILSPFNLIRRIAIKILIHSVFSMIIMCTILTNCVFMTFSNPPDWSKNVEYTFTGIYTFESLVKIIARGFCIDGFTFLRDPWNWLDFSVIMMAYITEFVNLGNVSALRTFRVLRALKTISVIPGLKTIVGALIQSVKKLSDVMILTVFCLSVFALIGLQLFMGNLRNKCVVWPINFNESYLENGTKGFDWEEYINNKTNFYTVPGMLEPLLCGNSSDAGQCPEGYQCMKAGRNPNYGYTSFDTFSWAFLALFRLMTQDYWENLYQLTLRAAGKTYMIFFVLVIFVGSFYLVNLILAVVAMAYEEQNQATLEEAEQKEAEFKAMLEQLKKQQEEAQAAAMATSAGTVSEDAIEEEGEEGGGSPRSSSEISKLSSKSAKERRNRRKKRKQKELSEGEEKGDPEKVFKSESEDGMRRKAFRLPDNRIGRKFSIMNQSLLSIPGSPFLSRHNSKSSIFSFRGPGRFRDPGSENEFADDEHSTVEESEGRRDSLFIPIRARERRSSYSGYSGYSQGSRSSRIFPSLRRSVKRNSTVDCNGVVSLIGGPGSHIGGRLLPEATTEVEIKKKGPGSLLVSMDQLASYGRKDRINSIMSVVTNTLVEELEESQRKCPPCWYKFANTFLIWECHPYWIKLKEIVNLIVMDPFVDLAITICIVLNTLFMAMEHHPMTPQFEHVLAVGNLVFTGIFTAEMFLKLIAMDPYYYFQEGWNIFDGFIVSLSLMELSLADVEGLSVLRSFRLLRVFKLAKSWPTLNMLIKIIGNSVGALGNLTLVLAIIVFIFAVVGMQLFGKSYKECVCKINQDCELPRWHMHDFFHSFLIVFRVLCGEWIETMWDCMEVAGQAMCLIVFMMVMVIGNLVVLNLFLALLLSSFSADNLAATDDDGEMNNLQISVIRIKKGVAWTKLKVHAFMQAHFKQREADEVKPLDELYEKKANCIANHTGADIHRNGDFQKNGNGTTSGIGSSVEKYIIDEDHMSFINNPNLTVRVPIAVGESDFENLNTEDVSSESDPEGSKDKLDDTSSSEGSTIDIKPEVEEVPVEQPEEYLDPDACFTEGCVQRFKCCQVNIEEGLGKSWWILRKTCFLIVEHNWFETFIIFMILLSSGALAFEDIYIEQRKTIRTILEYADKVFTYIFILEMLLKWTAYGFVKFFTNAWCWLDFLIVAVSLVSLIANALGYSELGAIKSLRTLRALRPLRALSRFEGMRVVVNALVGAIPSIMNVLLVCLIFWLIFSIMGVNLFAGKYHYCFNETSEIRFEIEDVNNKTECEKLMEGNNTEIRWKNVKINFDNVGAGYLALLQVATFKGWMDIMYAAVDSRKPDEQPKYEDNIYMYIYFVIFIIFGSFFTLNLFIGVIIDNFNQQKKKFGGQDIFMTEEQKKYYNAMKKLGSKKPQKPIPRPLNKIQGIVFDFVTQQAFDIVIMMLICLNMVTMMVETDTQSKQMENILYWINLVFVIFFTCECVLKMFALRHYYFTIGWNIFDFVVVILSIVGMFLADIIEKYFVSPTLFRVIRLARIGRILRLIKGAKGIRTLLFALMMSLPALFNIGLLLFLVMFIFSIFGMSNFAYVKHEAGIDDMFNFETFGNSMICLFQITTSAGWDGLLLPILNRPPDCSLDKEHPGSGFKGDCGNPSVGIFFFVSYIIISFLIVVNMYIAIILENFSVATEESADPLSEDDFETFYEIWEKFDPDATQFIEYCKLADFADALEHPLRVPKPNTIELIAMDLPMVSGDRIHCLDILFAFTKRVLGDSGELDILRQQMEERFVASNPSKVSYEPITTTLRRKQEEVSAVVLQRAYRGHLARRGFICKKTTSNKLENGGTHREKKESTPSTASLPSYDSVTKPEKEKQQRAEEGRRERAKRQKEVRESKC
Conditions: holding potential −65 mV; max concentration tested 33750 nM. On the procedure:
(§1) Qube™ Experimental Procedure:
(§2) Compounds were tested on human Nav1.7 and Nav1.6 channels stably expressed in HEK 293 cells. […] Cells were sealed on a planar substrate using the multihole technology. Cells expressing human Nav1.7 channels were held at −75 mV or −80 mV. Cells expressing human Nav1.6 channels were held at −65 mV. A train of 6 consecutive test pulses to −10 mV, preceded by 8 s prepulses to −115 mV, was applied at a frequency of 0.1 Hz before and after compound addition. Cells in each Qchip well were incubated in compound for 5 minutes before measuring inhibition. Peak currents were measured in control conditions and after compound addition. The following recording solutions were used (mM). External Nav1.6: 150 NaCl, 2 CaCl2), 5 KCl, 1 Mg Cl2, 10 HEPES, 12 Dextrose; external Nav1.7: 40 NaCl, 120 NMDG, 1 KCl, 0.5 MgCl2, 5 HEPES, 2.7 CaCl2); internal: 120 CsF, 30 CsCl, 10 EGTA, 5 HEPES, 5 NaF, 2 MgCl2. Compounds were prepared as 10 mM stock solutions in DMSO. 10 point compound titrations were generated using the Echo acoustic liquid handling instrument and glass coated 384 well plates. The final DMSO concentration in the assay was 0.3%. For all electrophysiology experiments, offline analysis was used to determine percent inhibition as a function of drug concentration. IC50 values were determined by fitting to the Hill equation.
(§3) The various compounds in EXAMPLES 1 through 43 and TABLE 2 exemplified above were assayed for activity and selectivity using the foregoing Qube® technique. The results are reported in TABLE 3 in a format expressing the identification of the compound with reference EXAMPLE followed by the observed potency in nM for NaV1.7, NaV1.6 and NaV1.5. NA signifies not applicable and the max concentration tested is 33750 nM.

For experiment [2], the target named is T2, human Nav1.7 channels stably expressed in HEK 293 cells (Homo sapiens, UniProt Q15858).
T2 construct: expressed in transfected cells; host or cells: HEK 293
T2 sequence (Q15858 whole entry): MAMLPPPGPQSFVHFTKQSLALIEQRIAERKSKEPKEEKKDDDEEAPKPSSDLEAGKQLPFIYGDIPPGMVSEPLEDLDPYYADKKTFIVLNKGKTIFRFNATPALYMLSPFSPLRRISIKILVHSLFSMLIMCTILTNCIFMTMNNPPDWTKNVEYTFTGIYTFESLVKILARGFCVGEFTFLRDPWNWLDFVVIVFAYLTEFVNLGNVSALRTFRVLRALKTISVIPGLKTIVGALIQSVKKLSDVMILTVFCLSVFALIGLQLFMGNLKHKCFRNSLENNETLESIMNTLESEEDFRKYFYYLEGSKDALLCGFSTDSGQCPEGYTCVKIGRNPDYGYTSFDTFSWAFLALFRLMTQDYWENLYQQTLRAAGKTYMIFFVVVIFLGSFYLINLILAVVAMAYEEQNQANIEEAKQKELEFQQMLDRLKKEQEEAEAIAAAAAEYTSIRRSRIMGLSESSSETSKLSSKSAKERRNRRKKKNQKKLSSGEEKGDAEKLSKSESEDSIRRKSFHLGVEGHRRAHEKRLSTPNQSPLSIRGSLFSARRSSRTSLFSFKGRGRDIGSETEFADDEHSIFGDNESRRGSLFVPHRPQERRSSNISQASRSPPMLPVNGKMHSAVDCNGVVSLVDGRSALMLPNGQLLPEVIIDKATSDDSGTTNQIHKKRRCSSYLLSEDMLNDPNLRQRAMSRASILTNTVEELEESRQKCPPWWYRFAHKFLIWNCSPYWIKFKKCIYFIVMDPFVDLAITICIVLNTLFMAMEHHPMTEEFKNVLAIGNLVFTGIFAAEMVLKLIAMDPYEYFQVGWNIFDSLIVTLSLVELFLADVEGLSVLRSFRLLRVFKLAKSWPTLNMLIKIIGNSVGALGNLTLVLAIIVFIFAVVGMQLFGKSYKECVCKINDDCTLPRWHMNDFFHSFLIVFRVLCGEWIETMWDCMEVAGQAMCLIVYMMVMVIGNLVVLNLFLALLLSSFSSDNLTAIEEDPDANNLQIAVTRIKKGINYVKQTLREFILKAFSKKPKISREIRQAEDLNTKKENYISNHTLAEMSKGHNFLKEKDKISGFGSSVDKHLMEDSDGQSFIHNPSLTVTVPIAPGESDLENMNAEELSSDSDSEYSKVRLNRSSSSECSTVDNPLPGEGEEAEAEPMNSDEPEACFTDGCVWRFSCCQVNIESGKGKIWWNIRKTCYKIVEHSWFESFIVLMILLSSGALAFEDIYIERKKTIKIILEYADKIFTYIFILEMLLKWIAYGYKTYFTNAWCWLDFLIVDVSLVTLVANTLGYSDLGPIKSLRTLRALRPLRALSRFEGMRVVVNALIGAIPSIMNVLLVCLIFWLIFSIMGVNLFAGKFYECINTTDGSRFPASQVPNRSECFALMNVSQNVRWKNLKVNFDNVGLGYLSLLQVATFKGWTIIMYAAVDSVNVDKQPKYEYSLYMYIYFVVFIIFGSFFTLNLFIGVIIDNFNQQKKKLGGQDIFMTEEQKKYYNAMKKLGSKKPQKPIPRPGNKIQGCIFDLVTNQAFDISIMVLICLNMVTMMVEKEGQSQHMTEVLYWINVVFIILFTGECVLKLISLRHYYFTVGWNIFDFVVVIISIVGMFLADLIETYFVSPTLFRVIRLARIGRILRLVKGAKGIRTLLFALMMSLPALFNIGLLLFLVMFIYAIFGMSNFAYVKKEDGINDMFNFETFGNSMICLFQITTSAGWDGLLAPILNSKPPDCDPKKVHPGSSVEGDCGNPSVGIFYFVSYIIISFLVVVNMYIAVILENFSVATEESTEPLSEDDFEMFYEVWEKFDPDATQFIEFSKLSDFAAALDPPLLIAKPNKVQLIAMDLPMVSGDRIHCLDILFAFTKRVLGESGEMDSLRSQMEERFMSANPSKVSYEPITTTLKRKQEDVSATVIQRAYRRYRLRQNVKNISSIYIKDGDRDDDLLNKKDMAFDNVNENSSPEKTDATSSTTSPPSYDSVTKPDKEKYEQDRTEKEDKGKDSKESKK
Conditions: max concentration tested 33750 nM, read-out: NaV1.7 (nM). On the procedure: as §1, §2, §3

Experiment [3] concerns the target NaV1.5 (Homo sapiens, UniProt Q14524). Conditions: holding potential −80 mV; max concentration tested 33750 nM. On the procedure: as §2, §3
Setting [4] is: holding potential −80 mV, −80 mV.
Where [5] appears, read: holding potential −75 mV, −75 mV.

`CC[C@@H](N)C(CNc1cc(F)c(S(=O)(=O)Nc2ncns2)c(F)c1F)CC1(CCN)CCC1` (single isomer, unassigned) [Example 22]: the figures for the IC50 in experiment [1], in experiment [2] (setting [4]) and in experiment [3] were 12100 nM, 26 nM and > 33800 nM, respectively.
On the same counts, the results for `C[C@@H](N)C(CNc1cc(F)c(S(=O)(=O)Nc2ncns2)cc1F)CC1CCCC12CNC2` (single isomer, unassigned) [Example 25] are > 33800 nM, 83 nM and > 33800 nM.
On to `C[C@@H](N)C(CNc1cc(F)c(S(=O)(=O)Nc2ncns2)cc1F)C(N)C1CCC1` (single isomer, unassigned) [Example 34], for which the IC50 in experiment [1] is > 33800 nM; in experiment [2] (setting [5]), 77 nM; in experiment [3] it was > 33800 nM.
In the case of `CC(C)NCC(CNc1cc(F)c(S(=O)(=O)Nc2ncns2)cc1Cl)[C@@H](C)N` (single isomer, unassigned) [Example 36], the IC50 in experiment [1] is > 33800 nM; in experiment [2] (setting [5]) it was 82 nM; in experiment [3], > 33800 nM.
As to `CC(C)N(CC(CNc1cc(F)c(S(=O)(=O)Nc2ncns2)cc1F)[C@@H](C)N)C[C@@H](C)N` (single isomer, unassigned) [Example 38], the IC50 is > 33800 nM in experiment [1], 109 nM in experiment [2] (setting [5]) and > 33800 nM in experiment [3].
Take `CC(C)N(CC(CNc1cc(F)c(S(=O)(=O)Nc2ncns2)cc1F)[C@@H](C)N)C[C@@H](C)N` (single isomer, unassigned) [Example 39]: the IC50 was > 33800 nM in experiment [1], 210 nM in experiment [2] (setting [4]) and > 33800 nM in experiment [3].
As for `C[C@@H](N)[C@@H](CC(C)(C)CCN)C1CCc2cc(S(=O)(=O)Nc3ncns3)c(F)cc2O1` (single isomer, unassigned) [Example 42], the IC50 is > 33800 nM in experiment [1], 306 nM in experiment [2] (setting [4]) and > 33800 nM in experiment [3].
For `C[C@@H](N)C(CNc1cc(F)c(S(=O)(=O)Nc2ncns2)cc1F)CC1CCCC1CN` (single isomer, unassigned) [Example 46], the results for the IC50 in experiment [1], in experiment [2] (setting [4]) and in experiment [3] were > 33800 nM, 57 nM and > 33800 nM, respectively.
Take `C[C@@H](N)C(CNc1cc(F)c(S(=O)(=O)Nc2ncns2)cc1F)CC1(C)CCC1CN` (single isomer, unassigned) [Example 53]: the IC50 in experiment [1] was > 33800 nM; in experiment [2] (setting [4]) it was 165 nM; in experiment [3], > 33800 nM.
With `C[C@@H](N)C(CNc1cc(F)c(S(=O)(=O)Nc2ncns2)cc1Br)CC1(CCN)CC(F)(F)C1` (single isomer, unassigned) [Example 57], the values for the IC50 in experiment [1], in experiment [2] (setting [4]) and in experiment [3] were 224 nM, 10 nM and > 33800 nM, respectively.
For `C[C@@H](N)C(CNc1ccc(S(=O)(=O)Nc2ncns2)c(F)c1)CC1(CCN)CC(F)(F)C1` (single isomer, unassigned) [Example 59] the same measures were > 33800 nM, 38 nM and > 33800 nM.
For `C[C@@H](N)C(CNc1cc(F)c(S(=O)(=O)Nc2ncns2)cc1F)CC1CCCCC1CCN` (single isomer, unassigned) [Example 60] the same measures were > 33800 nM, 12 nM and 20600 nM.
On the same counts, the results for `C[C@@H](N)C(CNc1cc(F)c(S(=O)(=O)Nc2ncns2)cc1F)CC1CCCCC1CCN` (single isomer, unassigned) [Example 61] are > 33800 nM, 16 nM and > 33800 nM.
As for `C[C@@H](N)C(CNc1cc(F)c(S(=O)(=O)Nc2ncns2)cc1F)CC1CCCCC1CCN` (single isomer, unassigned) [Example 62], the IC50 in experiment [1] was > 33800 nM; in experiment [2] (setting [4]) it was 56 nM; in experiment [3], > 33800 nM.
Regarding `C[C@@H](N)C(CNc1cc(F)c(S(=O)(=O)Nc2ncns2)cc1F)CC1CCCCC1CCN` (single isomer, unassigned) [Example 63], the results for the IC50 in experiment [1], in experiment [2] (setting [4]) and in experiment [3] were > 33800 nM, 156 nM and > 33800 nM, respectively.
Regarding `C[C@@H](N)C(CNc1cc(F)c(S(=O)(=O)Nc2ncns2)cc1F)CC1CCCCC1CCN` (single isomer, unassigned) [Example 65], the IC50 in experiment [1] was > 33800 nM; in experiment [2] (setting [4]), 271 nM; in experiment [3], > 33800 nM.
Consider `C[C@@H](N)C(CNc1cc(F)c(S(=O)(=O)Nc2ncns2)cc1F)CC1CC2(CC2)CN1` (single isomer, unassigned) [Example 72], for which the IC50 in experiment [1] was > 33800 nM; in experiment [2] (setting [4]) it was 229 nM; in experiment [3], > 33800 nM.
Take `C[C@@H](N)[C@H](CNc1cc(F)c(S(=O)(=O)Nc2ncns2)cc1F)CC(N)CC(F)(F)F` (single isomer, unassigned) [Example 85]: the values for the IC50 in experiment [1], in experiment [2] (setting [5]) and in experiment [3] were > 33800 nM, 72 nM and > 33800 nM, respectively.
Consider `CCC(CN)CC(CNc1cc(F)c(S(=O)(=O)Nc2ncns2)cc1F)[C@@H](C)N` (single isomer, unassigned) [Example 93], for which the IC50 in experiment [1] is > 33800 nM; in experiment [2] (setting [5]), 16 nM; in experiment [3], > 33800 nM.
On to `C[C@@H](N)C(CNc1cc(F)c(S(=O)(=O)Nc2ncns2)cc1F)C[C@@]1(C)CCC[C@@H]1CN` (single isomer, unassigned) [Example 97], for which the IC50 in experiment [1] is > 33800 nM; in experiment [2] (setting [5]) it was 7 nM; in experiment [2] (setting [4]), 28 nM; in experiment [3] it was > 33800 nM.
Consider `CC(C)C(N)CC(CNc1cc(F)c(S(=O)(=O)Nc2ncns2)cc1Br)[C@@H](C)N` (single isomer, unassigned) [Example 109], for which the IC50 was found to be 697 nM in experiment [1], 3 nM in experiment [2] (setting [5]) and 15600 nM in experiment [3].
Turning to `C[C@@H](N)C(CNc1cc(F)c(S(=O)(=O)Nc2ncns2)cc1F)CC1NC2CCC1C2` (single isomer, unassigned) [Example 111], the IC50 in experiment [1] is > 33800 nM; in experiment [2] (setting [4]) it was 65 nM; in experiment [3], 13000 nM.
Regarding `C[C@H]1NCCNCC(C)(C)C[C@H]1CNc1cc(F)c(S(=O)(=O)Nc2ncns2)cc1Cl` [Example 5, 5-chloro-2-fluoro-N-(1,2,4-thiadiazol-5-yl)-4-((((5R,6S)-5,8,8-trimethyl-1,4-diazonan-6-yl)methyl)amino)benzenesulfonamide], the IC50 is 20700 nM in experiment [1], 118 nM in experiment [2] (setting [5]) and > 33800 nM in experiment [3].
On the same counts, the results for `C[C@@H](N)[C@H](CNc1cc(F)c(S(=O)(=O)Nc2ncns2)cc1F)CC1(CCN)CCC1` [Example 10, 4-(((2S,3R)-3-amino-2-((1-(2-aminoethyl)cyclobutyl)methyl)butyl)amino)-2,5-difluoro-N-(1,2,4-thiadiazol-5-yl)benzenesulfonamide] are > 33800 nM, 8 nM and > 33800 nM.
For `C[C@@H](N)[C@H](CNc1cc(F)c(S(=O)(=O)Nc2ccncn2)cc1Cl)CC(C)(C)CCN` [Example 12, 4-(((S)-6-amino-2-((R)-1-aminoethyl)-4,4-dimethylhexyl)amino)-5-chloro-2-fluoro-N-(pyrimidin-4-yl)benzenesulfonamide] the same measures were > 33800 nM, 133 nM and > 33800 nM.
With `C[C@@H](N)[C@H](CNc1cc(F)c(S(=O)(=O)Nc2ncns2)cc1F)CC(N)C1(C)CC1` (stereo partly drawn) [Example 18, 4-(((2S)-4-amino-2-((R)-1-aminoethyl)-4-(1-methylcyclopropyl)butyl)amino)-2,5-difluoro-N-(1,2,4-thiadiazol-5-yl)benzenesulfonamide], the values for the IC50 in experiment [1], in experiment [2] (setting [4]) and in experiment [3] were > 33800 nM, 149 nM and > 33800 nM, respectively.
`CC(C)[C@@H](N)[C@H](CNc1cc(F)c(S(=O)(=O)Nc2ncns2)cc1Cl)CC(C)(C)CCN` [Example 27, 4-(((S)-6-amino-2-((R)-1-amino-2-methylpropyl)-4,4-dimethylhexyl)amino)-5-chloro-2-fluoro-N-(1,2,4-thiadiazol-5-yl)benzenesulfonamide bis(2,2,2-trifluoroacetate)]: the IC50 in experiment [1] was > 33800 nM; in experiment [2] (setting [5]) it was 41 nM; in experiment [3], > 33800 nM.
Turning to `CC(C)(CCN)C[C@@H](CNc1cc(F)c(S(=O)(=O)Nc2ncns2)cc1F)[C@H](N)C1CC1` [Example 28, 4-(((S)-6-amino-2-((R)-amino(cyclopropyl)methyl)-4,4-dimethylhexyl)amino)-2,5-difluoro-N-(1,2,4-thiadiazol-5-yl)benzenesulfonamide], the figures for the IC50 in experiment [1], in experiment [2] (setting [5]) and in experiment [3] were > 33800 nM, 34 nM and > 33800 nM, respectively.
